Test results reported in US10035778B2, “Meta-azacyclic amino benzoic acid derivatives as pan integrin antagonists” (Saint Louis University, priority 2015, dated 2018).

Assays:
Format in all cases: binding
[1] = target: Recombinant human integrin αvβ6 (Homo sapiens (Human), UniProt P06756+P18564); assay: Solid Phase Receptor Assay (SPRA) for αvβ6 function; settings: LAP-coated plate
Method: 5. Solid Phase Receptor Assay (SPRA) for αvβ6 Function
Recombinant human LAP (R&D Systems, 246-LP) diluted to 0.25 μg/mL in TBS+ buffer (25 mM Tris pH 7.4, 137 mM NaCl, 2.7 mM KCl, 1 mM CaCl2, 1 mM MgCl2, 1 mM MnCl2) was added to wells (50 μL/well) of a 96-well half-well transparent microtiter plate (Greiner 675061) and incubated overnight at 4° C. Wells were washed 3 times with 150 μL TBS+, and 150 μL of blocking buffer (TBS+ with 1% bovine serum albumin, Sigma A7906) were added. The plate was incubated for 1 hr at 37° C., and then washed 3× with TBS+ buffer. Recombinant human integrin αvβ6 (R&D Systems, 3817-AV) was diluted to 0.1 μg/mL in TBS+/0.1% bovine serum albumin. Compounds were diluted 1:100 into the integrin solution and then 50 μL added to empty wells of the washed LAP-coated plate according to a standard template with each sample repeated in triplicate. After incubation for two hours at room temperature, the plate was washed 3× with 150 μL of TBS+ buffer. To each well, 50 μL of biotinylated anti-αv antibody (R&D Systems, BAF1219) at 0.5 μg/mL in TBS+/0.1% BSA were added and the plate was covered and incubated for 1 hr at room temperature. After washing the plate 3× with 150 μL of TBS+ buffer, 50 μL of streptavidin-conjugated horseradish peroxidase (R&D Systems, DY998) diluted in TBS+ blocking buffer were added to the wells and the plate incubated for 20 min at room temperature. The plate was washed 3× with TBS+ buffer followed by 50 μL of TMB substrate (Sigma T4444) added to each well and the plate incubated for 20 min at room temperature. Plates were read by colorimetric detection at 650 nm wavelength using a Tecan Safire II plate reader. Concentration-response curves were constructed by non-linear regression (best fit) analysis, and IC50 values were calculated for each compound.

[2] = target: Recombinant human integrin α8β1 (Homo sapiens (Human), UniProt P05556+P53708); assay: Solid Phase Receptor Assay (SPRA) for α8β1 function; settings: mouse nephronectin-coated plate
Chain of Recombinant human integrin α8β1 (P53708 39-1012): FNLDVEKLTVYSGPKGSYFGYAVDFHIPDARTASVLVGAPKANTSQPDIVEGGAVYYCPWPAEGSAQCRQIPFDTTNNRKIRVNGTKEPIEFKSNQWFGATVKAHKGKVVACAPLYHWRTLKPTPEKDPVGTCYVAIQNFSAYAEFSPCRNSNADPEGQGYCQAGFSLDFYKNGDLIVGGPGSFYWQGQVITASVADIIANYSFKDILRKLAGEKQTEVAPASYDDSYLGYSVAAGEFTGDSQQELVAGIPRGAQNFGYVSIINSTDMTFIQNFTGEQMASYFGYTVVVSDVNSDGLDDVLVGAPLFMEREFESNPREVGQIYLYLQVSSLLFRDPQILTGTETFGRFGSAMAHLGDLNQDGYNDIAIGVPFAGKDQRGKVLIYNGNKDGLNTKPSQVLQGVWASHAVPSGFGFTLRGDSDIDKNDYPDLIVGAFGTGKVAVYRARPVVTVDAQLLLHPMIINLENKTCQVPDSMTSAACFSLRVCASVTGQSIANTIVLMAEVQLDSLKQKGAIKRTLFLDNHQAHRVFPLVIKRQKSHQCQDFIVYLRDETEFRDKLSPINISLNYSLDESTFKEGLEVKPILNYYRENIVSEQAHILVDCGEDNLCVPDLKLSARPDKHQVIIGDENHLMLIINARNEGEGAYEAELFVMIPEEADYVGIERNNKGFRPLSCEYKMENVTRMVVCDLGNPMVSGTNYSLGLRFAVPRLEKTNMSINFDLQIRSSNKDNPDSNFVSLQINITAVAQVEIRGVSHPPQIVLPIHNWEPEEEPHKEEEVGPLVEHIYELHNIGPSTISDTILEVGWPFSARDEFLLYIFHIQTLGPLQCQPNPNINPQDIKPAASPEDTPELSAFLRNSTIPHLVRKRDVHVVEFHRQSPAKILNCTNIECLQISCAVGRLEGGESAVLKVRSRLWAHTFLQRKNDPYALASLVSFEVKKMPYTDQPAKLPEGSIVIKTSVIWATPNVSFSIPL
Chain of Recombinant human integrin α8β1 (P05556 21-728): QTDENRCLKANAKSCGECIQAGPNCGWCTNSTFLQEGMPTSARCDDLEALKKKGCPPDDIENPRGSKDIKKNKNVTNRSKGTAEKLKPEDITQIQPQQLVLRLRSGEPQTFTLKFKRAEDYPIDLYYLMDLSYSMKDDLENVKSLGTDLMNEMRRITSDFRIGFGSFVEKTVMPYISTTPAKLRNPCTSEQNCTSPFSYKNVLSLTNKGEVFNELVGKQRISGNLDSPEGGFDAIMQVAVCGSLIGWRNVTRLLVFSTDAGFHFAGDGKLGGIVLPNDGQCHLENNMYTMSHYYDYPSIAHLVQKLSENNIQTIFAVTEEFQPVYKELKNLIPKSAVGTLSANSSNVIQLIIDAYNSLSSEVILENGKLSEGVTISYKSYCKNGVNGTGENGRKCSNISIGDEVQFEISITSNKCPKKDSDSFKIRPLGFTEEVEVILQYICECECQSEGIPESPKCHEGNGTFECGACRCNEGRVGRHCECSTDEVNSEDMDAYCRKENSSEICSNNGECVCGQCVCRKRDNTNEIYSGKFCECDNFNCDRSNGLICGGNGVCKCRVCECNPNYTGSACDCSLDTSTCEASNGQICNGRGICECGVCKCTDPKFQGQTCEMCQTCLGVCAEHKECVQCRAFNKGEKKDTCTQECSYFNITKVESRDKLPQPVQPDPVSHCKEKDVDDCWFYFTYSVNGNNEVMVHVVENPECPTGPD
Method: 7. Solid Phase Receptor Assay (SPRA) for α8β1 Function
Recombinant mouse nephronectin protein (R&D Systems, Inc, 4298-NP) diluted to 1 μg/mL in TBS+ buffer (25 mM Tris pH 7.4, 137 mM NaCl, 2.7 mM KCl, 1 mM CaCl2, 1 mM MgCl2, 1 mM MnCl2) was added to wells (50 μl/well) of a 96-well half-well transparent microtiter plate (Greiner 675061), and incubated overnight at 4° C. Wells were washed 3 times with 150 μL TBS+ and 150 μL of blocking buffer (TBS+ with 1% bovine serum albumin, Sigma A7906) were added. The plate was incubated for 1 hr at 37° C. and then washed 3× with TBS+. Recombinant human integrin α8β1 (R&D Systems, pre-launch) was diluted to 0.25 μg/mL in TBS+/0.1% bovine serum albumin. Compounds were diluted 1:100 into the integrin solution and 50 μL added to empty wells of the washed nephronectin-coated plate according to a standard template with each sample repeated in triplicate. After incubation for two hours at room temperature, the plate was washed 3× with 150 μL of TBS+. To each well, 50 μL of biotinylated anti-β antibody (R&D Systems, BAF1778) at 0.5 μg/mL in TBS+/0.1% BSA were added and the plate was covered and incubated for 1 hr at room temperature. After washing the plate 3× with 150 μL of TBS+ buffer, 50 μL of streptavidin-conjugated horseradish peroxidase (R&D Systems, DY998) diluted in TBS+ blocking buffer were added to the wells and the plate incubated for 20 min at room temperature. The plate was washed 3× with TBS+ followed by 50 μL of TMB substrate (Sigma T4444) added to each well and the plate incubated for 20 min at room temperature. Plates were read by colorimetric detection at 650 nm wavelength using a Tecan Safire II plate reader. Concentration-response curves were constructed by non-linear regression (best fit) analysis, and IC50 values were calculated for each compound.

[3] = target: Recombinant human integrin α5β1 (Homo sapiens (Human), UniProt P05556+P08648); assay: Solid Phase Receptor Assay (SPRA) for α5β1 function; settings: fibronectin-coated plate
Chain of Recombinant human integrin α5β1 (P08648 42-995): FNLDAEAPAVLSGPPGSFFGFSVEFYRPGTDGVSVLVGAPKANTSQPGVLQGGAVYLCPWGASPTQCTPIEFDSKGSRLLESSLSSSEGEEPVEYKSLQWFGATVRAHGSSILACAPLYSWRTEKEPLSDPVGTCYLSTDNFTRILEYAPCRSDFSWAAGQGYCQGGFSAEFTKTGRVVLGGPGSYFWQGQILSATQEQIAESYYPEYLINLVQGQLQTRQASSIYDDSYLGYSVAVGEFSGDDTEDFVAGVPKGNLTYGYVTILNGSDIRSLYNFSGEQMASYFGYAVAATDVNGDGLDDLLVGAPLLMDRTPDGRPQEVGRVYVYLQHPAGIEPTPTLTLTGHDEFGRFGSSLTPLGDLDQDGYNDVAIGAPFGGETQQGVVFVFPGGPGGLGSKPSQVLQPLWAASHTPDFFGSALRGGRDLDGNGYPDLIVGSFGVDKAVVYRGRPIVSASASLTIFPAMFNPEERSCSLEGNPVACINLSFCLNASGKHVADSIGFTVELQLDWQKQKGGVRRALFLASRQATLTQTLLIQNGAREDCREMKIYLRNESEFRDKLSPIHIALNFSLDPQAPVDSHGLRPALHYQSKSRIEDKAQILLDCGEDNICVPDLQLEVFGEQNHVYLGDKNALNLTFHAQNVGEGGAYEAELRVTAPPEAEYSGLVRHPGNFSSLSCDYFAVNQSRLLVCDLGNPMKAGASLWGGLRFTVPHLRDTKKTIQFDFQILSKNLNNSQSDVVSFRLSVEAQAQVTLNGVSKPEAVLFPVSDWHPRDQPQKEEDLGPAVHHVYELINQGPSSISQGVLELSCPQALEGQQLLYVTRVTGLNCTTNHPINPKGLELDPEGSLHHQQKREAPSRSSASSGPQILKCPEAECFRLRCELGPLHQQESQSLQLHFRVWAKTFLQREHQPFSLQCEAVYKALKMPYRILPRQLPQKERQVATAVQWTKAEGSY
Chain of Recombinant human integrin α5β1 (P05556 21-728): as the sequence (P05556 21-728) above
Method: 1. Solid Phase Receptor Assay (SPRA) for α5β1 Function
Purified human fibronectin (R&D Systems, 1918-FN) diluted to 2 μg/mL in TBS+ buffer (25 mM Tris pH 7.4, 137 mM NaCl, 2.7 mM KCl, 1 mM CaCl2, 1 mM MgCl2, 1 mM MnCl2) was added to wells (50 μL/well) of a 96-well half-well transparent microtiter plate (Greiner 675061) and incubated overnight at 4° C. Wells were washed 3 times with 150 μL TBS+ and 150 μL of blocking buffer (TBS+ with 1% bovine serum albumin, Sigma A7906) were added. The plate was incubated for 1 hr at 37° C. and then washed 3× with TBS+ buffer. Recombinant human integrin α5β1 (R&D Systems, 3230-A5) was diluted to 0.1 μg/mL in TBS+/0.1% bovine serum albumin. Compounds were diluted 1:100 into the integrin solution and then 50 μL added to empty wells of the washed fibronectin-coated plate according to a standard template with each sample repeated in triplicate. After incubation for two hours at room temperature, the plate was washed 3× with 150 μL of TBS+ buffer. To each well, 50 μl of biotinylated anti-α5 antibody (R&D Systems, BAF1864) at 0.5 μg/mL in TBS+/0.1% BSA were added and the plate covered and incubated for 1 hr at room temperature. After washing the plate 3× with 150 μL of TBS+ buffer, 50 μL of streptavidin-conjugated horseradish peroxidase (R&D Systems, DY998) diluted in TBS+ blocking buffer were added to the wells and the plate incubated for 20 min at room temperature. The plate was washed 3× with TBS+ buffer followed by 50 μL of room temperature TMB substrate (Sigma, T444) added to each well and the plate incubated for 20 min at room temperature. Plates were read by colorimetric detection at 650 nm wavelength using a Tecan Safire II plate reader. Concentration-response curves were constructed by non-linear regression (best fit) analysis, and IC50 values were calculated for each compound.

Chain of Recombinant human integrin αvβ6 (P06756 31-992): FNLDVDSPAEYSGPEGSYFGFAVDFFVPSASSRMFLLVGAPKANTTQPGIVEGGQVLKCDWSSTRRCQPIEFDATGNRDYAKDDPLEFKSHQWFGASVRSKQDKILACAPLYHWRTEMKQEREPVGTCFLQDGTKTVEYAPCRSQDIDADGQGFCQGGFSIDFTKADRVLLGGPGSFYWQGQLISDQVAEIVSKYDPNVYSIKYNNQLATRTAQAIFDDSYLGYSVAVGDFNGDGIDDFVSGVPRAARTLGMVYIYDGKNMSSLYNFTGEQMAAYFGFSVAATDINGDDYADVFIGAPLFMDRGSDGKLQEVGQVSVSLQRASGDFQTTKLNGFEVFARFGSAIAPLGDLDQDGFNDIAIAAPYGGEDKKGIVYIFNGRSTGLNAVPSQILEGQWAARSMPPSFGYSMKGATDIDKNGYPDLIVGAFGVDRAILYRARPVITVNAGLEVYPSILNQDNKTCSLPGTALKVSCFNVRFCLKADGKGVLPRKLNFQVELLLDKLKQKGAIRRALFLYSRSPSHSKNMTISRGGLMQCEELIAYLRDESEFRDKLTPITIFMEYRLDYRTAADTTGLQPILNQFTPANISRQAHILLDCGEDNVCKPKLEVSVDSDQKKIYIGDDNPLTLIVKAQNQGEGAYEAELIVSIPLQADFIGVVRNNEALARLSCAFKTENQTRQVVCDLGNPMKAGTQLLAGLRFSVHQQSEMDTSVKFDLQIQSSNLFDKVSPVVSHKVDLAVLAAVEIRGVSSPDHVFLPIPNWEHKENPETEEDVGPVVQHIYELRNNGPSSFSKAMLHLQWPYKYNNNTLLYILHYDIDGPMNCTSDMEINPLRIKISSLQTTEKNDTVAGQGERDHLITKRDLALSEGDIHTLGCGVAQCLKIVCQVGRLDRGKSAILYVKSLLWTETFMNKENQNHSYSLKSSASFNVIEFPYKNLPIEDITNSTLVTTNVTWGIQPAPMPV
Chain of Recombinant human integrin αvβ6 (P18564 22-707): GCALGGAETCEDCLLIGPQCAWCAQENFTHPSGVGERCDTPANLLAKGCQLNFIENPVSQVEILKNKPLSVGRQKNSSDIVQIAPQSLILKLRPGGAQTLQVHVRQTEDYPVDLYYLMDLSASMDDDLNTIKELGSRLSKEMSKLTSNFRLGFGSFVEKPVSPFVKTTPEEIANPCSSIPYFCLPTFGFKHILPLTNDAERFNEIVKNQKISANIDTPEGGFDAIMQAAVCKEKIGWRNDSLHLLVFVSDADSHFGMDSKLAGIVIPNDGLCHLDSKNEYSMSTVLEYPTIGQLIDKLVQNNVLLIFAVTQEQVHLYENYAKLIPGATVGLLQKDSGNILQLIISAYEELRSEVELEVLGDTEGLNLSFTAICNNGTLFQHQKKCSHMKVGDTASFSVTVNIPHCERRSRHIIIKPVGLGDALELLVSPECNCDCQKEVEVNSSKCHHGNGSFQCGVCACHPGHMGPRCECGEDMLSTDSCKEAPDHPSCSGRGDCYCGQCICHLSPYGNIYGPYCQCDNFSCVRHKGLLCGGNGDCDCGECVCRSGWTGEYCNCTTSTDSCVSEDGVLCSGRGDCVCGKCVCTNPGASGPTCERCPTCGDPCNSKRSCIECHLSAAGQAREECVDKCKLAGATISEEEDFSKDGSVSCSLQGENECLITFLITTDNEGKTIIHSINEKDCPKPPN

SMILES | IC50 [1] [nM] | IC50 [2] [nM] | IC50 [3] [nM]
O=C(O)C[C@H](NC(=O)CNC(=O)c1cc(O)cc(NC2=NCC(O)CN2)c1)c1cc(Cl)cc(OC(F)(F)F)c1 (stereo partly drawn) [Example 16, (3S)-3-[3-chloro-5-(trifluoromethoxy)phenyl)-3-(2-(3-hydroxy-5-((5-hydroxy-1,4,5,6-tetrahydropyrimidin-2-yl)amino)benzamido)acetamido)propanoic acid] | 0.5 | 0.5 | 1 ± 0.4
O=C(O)C[C@H](NC(=O)CNC(=O)c1cc(O)cc(NC2=NCC(O)CN2)c1)c1cc(Br)cc(OC(F)(F)F)c1 (stereo partly drawn) [Example 17, (3S)-3-(3-bromo-5-(trifluoromethoxy)phenyl)-3-(2-(3-hydroxy-5-((5-hydroxy-1,4,5,6-tetrahydropyrimidin-2-yl)amino)benzamido)acetamido)propanoic acid] | 0.7 | 0.7 | 1 ± 0.1
O=C(O)C[C@H](NC(=O)CNC(=O)c1cc(O)cc(NC2=NCC(O)CN2)c1)c1cc(Cl)cc(Br)c1O (stereo partly drawn) [Example C1, reference compound] | 2 ± 1 | 8 ± 2 | 16 ± 9
O=C(O)C[C@H](NC(=O)CNC(=O)c1cc(O)cc(NC2=NCC(O)CN2)c1)c1ccccc1 (stereo partly drawn) [Example C2, reference compound] | > 1000 | 3 | 8
O=C(O)CC(NC(=O)CNC(=O)c1cc(O)cc(NC2=NCC(O)CN2)c1)c1cc(Cl)cc(Cl)c1O (stereo not drawn) [Example C3, reference compound] | 1 | 14 | 40
Cc1cc(C)cc(C(CC(=O)O)NC(=O)CNC(=O)c2cccc(NC(=N)N)c2)c1 (stereo not drawn) [Example C4, reference compound] | 2 | 63 | 7
N=C(N)Nc1cccc(C(=O)NCC(=O)NC(CC(=O)O)c2ccccc2)c1 (stereo not drawn) [Example C5, reference compound] | 17 ± 2 | 383 | 24
Cc1ccc(O)c(C(CC(=O)O)NC(=O)CNC(=O)c2cc(O)cc(NC3=NCC(O)CN3)c2)c1 (stereo not drawn) [Example C6, reference compound] | 1 | 17 | 7 ± 4
O=C(O)CC(NC(=O)CNC(=O)c1cc(O)cc(NC2=NCC(O)CN2)c1)c1cc(Br)cc(Br)c1O (stereo not drawn) [Example C7, reference compound] | 12 | 26 | 59
Cc1ccc(O)c(C(CC(=O)O)NC(=O)CNC(=O)c2cccc(NC(=N)N)c2)c1 (stereo not drawn) [Example C8, reference compound] | 2 | 594 | 38
N=C(N)Nc1cccc(C(=O)NCC(=O)NC(CC(=O)O)c2cc(F)cc(C(F)(F)F)c2)c1 (stereo not drawn) [Example C9, reference compound] | 1 | 40 | 8 ± 3
Cc1cc(Cl)cc([C@@H](CC(=O)O)NC(=O)CNC(=O)c2cc(O)cc(NC3=NCC(O)CN3)c2)c1O (stereo partly drawn) [Example C10, reference compound] | 3 | 10 | 18
Cc1cc(Cl)cc([C@@H](CC(=O)O)NC(=O)CNC(=O)c2cccc(NC3=NCCN3)c2)c1O [Example C11, reference compound] | 4 | 17 | 33
